Data from patent US20130156932A1, “Method of increasing the milk and/or meat quantity of silage-fed animals” (BASF SE, priority 2007, published 2013).

How the values were obtained:
Format in all cases: in vivo, Zea mays (maize)
[1] = system: corn; assay: Corn silage strip trials Maryland 2006: NIRS forage quality and MILK 2006 calculated milk production
Procedure: (§1) Field trials were conducted as strip trials in farm fields in 2006 and 2008. A part of the field was treated with pyraclostrobin applied as Headline® whereas another part was left untreated. Headline® was applied at tassel emergence with 0.44 L/ha (110 g pyraclostrobin per ha) by aerial or ground application with a high clearance sprayer. Total spray volume was 93.5 to 187 L/ha for ground application and 18.7 to 46.7 L/ha for aerial application, respectively. Water was used as a carrier to prepare the spray mixture.
(§2) Trials were harvested using a commercial forage harvester when the corn crop reached a dry matter content of about 30 to 40%. The treated and untreated area of the field was harvested separately to gain total biomass yield (ton/acre). Subsequently, the harvested plant material was used for producing silage.
(§3) Forage samples from the harvested plants were taken from both the treated and untreated areas of the field. Samples were taken from the harvested material in the forage wagon following chopping with the commercial harvester. Multiple forage samples were taken for each of both treatments manually during harvesting in each of the trials, mixed in a larger container, and a subsample of 1.3 to 2.25 kg was taken. The subsamples were placed in plastic bags, sealed, cooled, and shipped immediately to Agsource Soil and Forage Laboratory, 106 North Cecil Street, Bonduel Wis. 54107, USA for Near Infrared Reflectance Spectroscopy (NIRS) analysis.
Typically, samples for NIRS analysis are first dried at 55 to 65° C. for 24 h to 48 h prior to analysis. A representative subsample thereof is then dried at 105° C. for another 12 h to 24 h to evaluate the dry matter content of the samples. Subsequently, the remaining sample is grinded and homogenized and again a representative subsample is used for the NIRS analysis. The NIRS analysis procedure uses a commercially available calibration to estimate the values for each quality parameter based on the spectral reflectance information gained. The calibrations are based on the near infra red reflectance spectra of samples with known quality data. The comparison of the spectra of the samples with unknown quality data with the spectra of the known samples allows calculating estimates for each quality parameter of interest.
NIRS analysis provided dry matter, crude protein, Acid Detergent Fibre (ADF), Neutral Detergent Fibre (NDF), and starch data. Calculations were included for moisture, adjusted crude protein, Total Digestible Nutrients (TDN), Net Energy for Lactation (NEL), Net Energy for Gain (NEG) and protein solubility.
The information was then entered into the MILK 2006 University of Wisconsin Corn Silage evaluation system. Calculations of the milk production, energy content and digestibility per ton of corn biomass were carried out using a calculation method described in:
a) Schwab, E. C., and R. D. Shaver. 2001: “Evaluation of corn silage nutritive value using MILK2000” (pages 21-24) in Proc. of 25th Forage Production and Use Symposium. WI Forage Council Annual Mtg. Eau Claire, Wis.
b) Schwab, E. C., R. D. Shaver. J. G. Lauer, and J. G. Coors. 2003: “Estimating silage energy value and milk yield to rank corn hybrids”. J. Anim. Feed Sci. Technol. 109: 1-18. as well as in
c) Undersander, D. J., W. T. Howard, and R. D. Shaver. 1993: “Milk per acre spreadsheet for combining yield and quality into a single term”. J. Prod. Ag. 6: 231 235.
In 2006 a total of 16 strip trials were conducted in Queen Ann County, Md. Trial setup, treatments, application, harvesting, sampling and quality analysis including calculation of milk production per ton and per acre followed the procedure described before.

[2] = system: corn; assay: Corn silage strip trials Wisconsin 2006: NIRS forage quality and MILK 2006 calculated milk production
Procedure: as §1, §2, §3
Typically, samples for NIRS analysis are first dried at 55 to 65° C. for 24 h to 48 h prior to analysis. A representative subsample thereof is then dried at 105° C. for another 12 h to 24 h to evaluate the dry matter content of the samples. Subsequently, the remaining sample is grinded and homogenized and again a representative subsample is used for the NIRS analysis. The NIRS analysis procedure uses a commercially available calibration to estimate the values for each quality parameter based on the spectral reflectance information gained. […]

[3] = system: corn; assay: Corn silage strip trials New York 2006: NIRS forage quality and MILK 2006 calculated milk production; conditions: New York 2006, pyraclostrobin vs untreated
Procedure: as §1, §2
(§4) Forage samples from the harvested plants were taken from both the treated and untreated areas of the field. Samples were taken from the harvested material in the forage wagon following chopping with the commercial harvester. Multiple forage samples were taken for each of both treatments manually during harvesting in each of the trials, mixed in a larger container, and a subsample of 1.3 to 2.25 kg was taken. The subsamples were placed in plastic bags, sealed, cooled, and shipped immediately to Agsource Soil and Forage Laboratory, 106 North Cecil Street, Bonduel Wis. […]

[4] = system: corn hybrid varieties; assay: Field trial Wisconsin 2008 with eight corn hybrids: calculated milk production per ton of harvested biomass
Procedure: as §1, §2, §4

[5] = Maryland 2006, pyraclostrobin vs untreated
[6] = Wisconsin 2006, pyraclostrobin vs untreated

## COC(=O)N(OC)c1ccccc1COc1ccn(-c2ccc(Cl)cc2)n1 [Pyraclostrobin, pyraclostrobin]
[1]; Maryland 2006, average of 16 strip trials, 110 g pyraclostrobin per ha
  total digestible nutrients as percent of dry matter (TDN % of DM): 70.0 % of DM
[1]; Maryland 2006, average of 16 strip trials, Headline at tassel emergence, 110 g pyraclostrobin per ha
  crude protein content (% CP): 7.1%
[1]; [5]
  % CP, % Difference to Untreated: +6.0%
  % NDF, % Difference to Untreated: −4.8%
  % NDFD, % Difference to Untreated: +3.9%
  Milk (kg/t), % Difference to Untreated: +5.9%
  TDN % of DM, % Difference to Untreated: +3.6%
[2]; Wisconsin 2006, average of 7 strip trials, 110 g pyraclostrobin per ha
  crude protein content (% CP): 7.5%
[2]; [6]
  % CP, % Difference to Untreated: +4.2%
  Milk (kg/t), % Difference to Untreated: +14.0%
[3]
  % CP, % Difference to Untreated: +6.0%
  % Dry Matter, % Difference to Untreated: −2.2%
[4]; Example 4.6, hybrid DS93VT3, Wisconsin 2008
  Calculated milk production, Milk (kg/t): 1600 kg/t
[4]; across the eight tested different corn hybrids, result in words
  milk production per ton of harvested corn biomass used to produce silage: improves the milk production
